Measurements reported in ChEMBL document CHEMBL1201862, “PubChem BioAssay data set” (2004).
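Grown in 96-well plates, cells were treated for 48 hours with each compound at five concentrations. Insufficient inhibition: endpoint recorded as highest concentration tested. GI50: concentration for 50% inhibition of growth.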 Calls of active or inactive are those of the source. Rule as the data show it: active = GI50 up to about 1.1 µM and inactive = higher.

Key:
Test in all cases: inhibition of tumour cell growth, NCI panel, 48 h
[1] = system: HCT-15
[2] = system: TK-10
[3] = system: SF-268
[4] = system: 786-0
[5] = system: U-251
[6] = system: SN12C
[7] = system: IGROV-1
[8] = system: LOX IMVI
[9] = system: SR
[10] = system: HOP-92
[11] = system: NCI/ADR-RES
[12] = system: PC-3
[13] = system: SK-MEL-2
[14] = system: SK-OV-3
[15] = system: COLO 205
[16] = system: KM12
[17] = system: SNB-75
[18] = system: RPMI-8226

Row | SMILES | GI50 [1] [µM] | GI50 [2] | GI50 [3] | GI50 [4] | GI50 [5] | GI50 [6] | GI50 [7] | GI50 [8] | GI50 [9] | GI50 [10] | GI50 [11] | GI50 [12] | GI50 [13] | GI50 [14] | GI50 [15] | GI50 [16] | GI50 [17] | GI50 [18]
1 | COc1cc(NCCC(=O)O)c2ncccc2c1 | > 100 | > 100 µM (inactive) | > 100 µM (inactive) | > 100 µM (inactive) | > 100 µM (inactive) | > 100 µM (inactive) | > 100 µM (inactive) | > 100 µM (inactive) | > 100 µM (inactive) | > 100 µM (inactive) | > 100 µM (inactive) | > 100 µM (inactive) | 38.8 µM (inactive) |  |  |  |  | 
2 | Nc1nc(Cl)cc(NCCCCCCCCCCNc2cc(Cl)nc(N)n2)n1 | 3.55 | 16.5 µM (inactive) | 3.26 µM (inactive) | 21.5 µM (inactive) | 4.21 µM (inactive) | 71.9 µM (inactive) | 22.2 µM (inactive) | 1.56 µM (inactive) | 2.62 µM (inactive) | 28.6 µM (inactive) |  |  | 4.93 µM (inactive) | 87.3 µM (inactive) | 24.9 µM (inactive) | 10.9 µM (inactive) | 22.6 µM (inactive) | 2.18 µM (inactive)
3 | COC(=O)/C=C(\C)CC/C=C(\C)CCC1OC1(C)C (configuration not stated) | 11.8 | 12.4 µM (inactive) |  | 12.6 µM (inactive) | 11.8 µM (inactive) | 10.2 µM (inactive) | 12.2 µM (inactive) | 2.53 µM (inactive) | 8.79 µM (inactive) | 11.9 µM (inactive) | 13.9 µM (inactive) | 8.36 µM (inactive) | 10.9 µM (inactive) | 23.7 µM (inactive) | 15.5 µM (inactive) | 9.48 µM (inactive) | 17.4 µM (inactive) | 
4 | [N-]=[N+]=Nc1cc(=O)n(-c2ccccc2)c(=O)n1-c1ccccc1 |  | > 100 µM (inactive) | > 100 µM (inactive) | > 100 µM (inactive) | > 100 µM (inactive) | > 100 µM (inactive) | > 100 µM (inactive) |  | > 100 µM (inactive) | > 100 µM (inactive) | > 100 µM (inactive) | > 100 µM (inactive) | > 100 µM (inactive) | > 100 µM (inactive) | > 100 µM (inactive) | > 100 µM (inactive) | > 100 µM (inactive) | > 100 µM (inactive)
5 | COc1cc(/C=C(\NC(=O)c2ccccc2)c2nc3cncnc3[nH]2)cc(OC)c1OC | > 100 | > 100 µM (inactive) | > 100 µM (inactive) | > 100 µM (inactive) | > 100 µM (inactive) | > 100 µM (inactive) | > 100 µM (inactive) |  | > 100 µM (inactive) | 88.1 µM (inactive) |  |  | > 100 µM (inactive) | > 100 µM (inactive) | > 100 µM (inactive) | > 100 µM (inactive) |  | 
6 | COC(=O)/C1=C/C=C\C[C@@]2(C)CC(c3ccoc3)OC(=O)[C@@H]2CC[C@H]1C (some centres not stated) | > 25 | > 25 µM (inactive) |  | > 25 µM (inactive) | > 25 µM (inactive) | > 25 µM (inactive) | > 25 µM (inactive) | > 25 µM (inactive) | > 25 µM (inactive) | > 25 µM (inactive) | > 25 µM (inactive) | > 25 µM (inactive) | > 25 µM (inactive) | > 25 µM (inactive) | > 25 µM (inactive) | > 25 µM (inactive) | > 25 µM (inactive) | 
7 | O=[N+]([O-])c1cccc2c(/N=N/c3ccc4ccccc4c3O)c(O)cc(S(=O)(=O)O)c12 | 14.1 | 49.7 µM (inactive) | 23.6 µM (inactive) | 17.8 µM (inactive) | 9.59 µM (inactive) | 64.7 µM (inactive) | 7.29 µM (inactive) | 6.18 µM (inactive) | 2.82 µM (inactive) | 55.7 µM (inactive) | 17 µM (inactive) | 18.8 µM (inactive) | 22.6 µM (inactive) | 76.2 µM (inactive) |  | 55.6 µM (inactive) | 44 µM (inactive) | > 100 µM (inactive)
